From patent publication US8785401B2, “Methods for treating diseases having an inflammatory component related to phospholipase A2” (Philadelphia Health & Education Corporation, priority 2005, dated 2014)

Tested on: sPLA2
Settings: CHEC-9 0.4 μM, LY31127 5.0 μM, whole blood, two 90 min periods at 4°

CCc1c(CC(N)=O)c2cc(OCCCP(=O)(O)O)ccc2n1Cc1ccccc1 [LY311727]
comparison of sPLA2 inhibition by the inhibitors alone and in sequence: equally effective inhibitors
